From patent US6274348A, “Methods for the preparation of positively charged proteins” (XOMA Corporation, priority 1997, dated 2001)

What was measured:
[1] = biological target: T1, rBPI(1-191)-IgG fusion protein (human BPI residues 1-191 fused to human IgG1 heavy chain hinge-CH2-CH3) (Homo sapiens, UniProt P01857+P17213); assay: direct 3H-heparin binding assay; details: highest 3H heparin concentration tested 2.5 μM; protein at 100 pmol/well, one hour at 4° C.
T1 construct: an rBPI(1-191)-IgG fusion protein was added to the wells of a 96-well plate; made in house; host or cells: CHO-DG44
T1 sequence (P17213+P01857 fused): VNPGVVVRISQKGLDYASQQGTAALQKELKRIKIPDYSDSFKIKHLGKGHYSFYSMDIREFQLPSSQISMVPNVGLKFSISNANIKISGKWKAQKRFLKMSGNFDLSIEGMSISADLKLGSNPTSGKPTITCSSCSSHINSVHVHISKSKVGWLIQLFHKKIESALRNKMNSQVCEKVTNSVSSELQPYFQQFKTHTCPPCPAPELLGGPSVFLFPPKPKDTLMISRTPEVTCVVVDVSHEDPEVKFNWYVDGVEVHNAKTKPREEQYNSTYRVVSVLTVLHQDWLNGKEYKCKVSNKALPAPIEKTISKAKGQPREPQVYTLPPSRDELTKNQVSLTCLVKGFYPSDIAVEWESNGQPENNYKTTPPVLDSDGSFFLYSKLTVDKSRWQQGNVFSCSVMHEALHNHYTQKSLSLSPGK
Source text: (§1) A direct ^3 H-heparin binding assay was utilized to analyze the comparative binding of rBPI(1-199) and rBPI-Ig fusions to heparin. The assay was based on the ability of a derivatized nylon membrane to bind proteins with high capacity. Such a membrane has been incorporated into the bottom of 96-well microtiter plates by Millipore Corp. (Bedford Mass.) (MULTISCREEN IP plates) and may be punched out of each well for scintillation counting.
(§2) To conduct the assay, rBPI(1-199) or an rBPI(1-191)-IgG fusion protein was added to the wells of a 96-well plate at a concentration of 100 pmol/well diluted with phosphate buffered saline (PBS), pH 7.4 nylon membrane. Upon absorption to the membrane, the wells were blocked with a blocking buffer comprising 0.1% bovine serum albumin (BSA) in PBS. Serial dilutions of ^3 H heparin (DuPont, NEN, Wilmington, Del.) were made from 4-5 μg/ml in the blocking buffer and incubated in the wells coated with either rBPI(1-199) and rBPI(1-191)-IgG for one hour at 4° C. After one hour, unbound heparin was aspirated and the wells were washed three times with blocking buffer, dried, and removed for quantitation of bound ^3 H-heparin by liquid scintillation counting.

[2] = biological target: T2, rBPI(1-199), first 199 N-terminal amino acids of mature human BPI (SEQ ID NOS: 1 and 2) (Homo sapiens, UniProt P17213); assay: direct 3H-heparin binding assay; details: protein adsorbed to nylon membrane at 100 pmol/well, 3H heparin dilutions, one hour at 4° C., PBS pH 7.4 with 0.1% BSA; read-out: apparent affinity (Kd) for heparin
T2 construct: made in house
T2 sequence (P17213 32-230): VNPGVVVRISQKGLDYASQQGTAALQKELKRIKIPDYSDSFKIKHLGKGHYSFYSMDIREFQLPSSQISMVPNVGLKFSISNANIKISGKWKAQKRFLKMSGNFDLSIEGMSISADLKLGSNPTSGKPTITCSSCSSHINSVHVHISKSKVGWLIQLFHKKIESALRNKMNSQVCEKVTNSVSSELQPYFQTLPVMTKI
Source text: as §1, §2

- saturation of 3H heparin binding [1]: did not reach saturation
- Kd [2]: 0.114 ± 0.03 µM
Substance: heparin
